# Reference: ChEMBL document CHEMBL3627674, “Discovery of wrightiadione as a novel template for the TrkA kinase inhibitors” (Bioorg Med Chem Lett, 2015)
# Tests used:
# [1] = target: Focal adhesion kinase 1 (Homo sapiens) (UniProt Q05397); assay: Inhibition of FAK (unknown origin) assessed as remaining activity at 10 uM by high-throughput assay relative to control
# [2] = target: Cyclin-dependent kinase 9 (Homo sapiens) (UniProt P50750); assay: Inhibition of CDK9 (unknown origin) assessed as remaining activity at 10 uM by high-throughput assay relative to control
# [3] = target: Phosphatidylinositol 4-phosphate 3-kinase C2 domain-containing subunit beta (Homo sapiens) (UniProt O00750); assay: Inhibition of PIK3C2B (unknown origin) assessed as remaining activity at 10 uM by high-throughput assay relative to control
# [4] = target: Serine/threonine-protein kinase Chk1 (Homo sapiens) (UniProt O14757); assay: Inhibition of CHEK1 (unknown origin) assessed as remaining activity at 10 uM by high-throughput assay relative to control
# Sequence of Serine/threonine-protein kinase Chk1 (Homo sapiens) (O14757 whole entry): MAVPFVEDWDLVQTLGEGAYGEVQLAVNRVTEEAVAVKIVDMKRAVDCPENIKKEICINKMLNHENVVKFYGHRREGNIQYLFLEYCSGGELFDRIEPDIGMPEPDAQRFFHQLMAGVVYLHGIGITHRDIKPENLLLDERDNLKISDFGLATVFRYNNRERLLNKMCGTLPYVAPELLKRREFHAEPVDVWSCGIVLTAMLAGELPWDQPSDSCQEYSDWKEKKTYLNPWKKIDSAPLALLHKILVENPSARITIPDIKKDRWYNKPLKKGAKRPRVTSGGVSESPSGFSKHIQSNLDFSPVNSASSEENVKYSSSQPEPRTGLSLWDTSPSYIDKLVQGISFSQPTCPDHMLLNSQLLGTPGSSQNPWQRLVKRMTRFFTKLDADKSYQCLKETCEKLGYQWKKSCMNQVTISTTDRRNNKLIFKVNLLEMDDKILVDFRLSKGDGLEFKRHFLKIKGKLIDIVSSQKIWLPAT
# [5] = target: Receptor-type tyrosine-protein kinase FLT3 (Homo sapiens) (UniProt P36888); assay: Inhibition of FLT3 (unknown origin) assessed as remaining activity at 10 uM by high-throughput assay relative to control
# [6] = target: Receptor tyrosine-protein kinase erbB-4 (Homo sapiens) (UniProt Q15303); assay: Inhibition of ERBB4 (unknown origin) assessed as remaining activity at 10 uM by high-throughput assay relative to control
# [7] = target: Casein kinase I isoform delta (Homo sapiens) (UniProt P48730); assay: Inhibition of CSNK1D (unknown origin) assessed as remaining activity at 10 uM by high-throughput assay relative to control
# [8] = target: 3-phosphoinositide-dependent protein kinase 1 (Homo sapiens) (UniProt O15530); assay: Inhibition of PDPK1 (unknown origin) assessed as remaining activity at 10 uM by high-throughput assay relative to control
# [9] = target: Protein kinase C epsilon type (Homo sapiens) (UniProt Q02156); assay: Inhibition of PRKCE (unknown origin) assessed as remaining activity at 10 uM by high-throughput assay relative to control
# [10] = target: Dual specificity tyrosine-phosphorylation-regulated kinase 1B (Homo sapiens) (UniProt Q9Y463); assay: Inhibition of DYRK1B (unknown origin) assessed as remaining activity at 10 uM by high-throughput assay relative to control
# Sequence of Dual specificity tyrosine-phosphorylation-regulated kinase 1B (Homo sapiens) (Q9Y463 whole entry, looked up): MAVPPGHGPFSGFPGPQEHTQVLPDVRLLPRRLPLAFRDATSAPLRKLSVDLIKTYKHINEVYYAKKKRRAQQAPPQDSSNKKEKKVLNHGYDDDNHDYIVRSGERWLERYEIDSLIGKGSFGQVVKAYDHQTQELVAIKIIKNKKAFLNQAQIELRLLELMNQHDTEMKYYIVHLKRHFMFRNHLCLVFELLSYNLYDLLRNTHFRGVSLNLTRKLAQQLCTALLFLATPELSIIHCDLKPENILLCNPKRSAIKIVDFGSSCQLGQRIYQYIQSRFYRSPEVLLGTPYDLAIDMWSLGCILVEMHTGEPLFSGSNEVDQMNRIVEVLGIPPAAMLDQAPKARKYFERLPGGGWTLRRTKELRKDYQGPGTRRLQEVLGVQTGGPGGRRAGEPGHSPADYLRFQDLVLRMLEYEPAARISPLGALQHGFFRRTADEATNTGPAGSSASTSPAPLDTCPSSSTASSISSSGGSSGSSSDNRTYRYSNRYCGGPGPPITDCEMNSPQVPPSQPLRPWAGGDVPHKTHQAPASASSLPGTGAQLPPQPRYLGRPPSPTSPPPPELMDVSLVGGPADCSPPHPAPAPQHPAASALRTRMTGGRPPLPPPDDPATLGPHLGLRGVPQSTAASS
# [11] = target: Mitogen-activated protein kinase kinase kinase 9 (Homo sapiens) (UniProt P80192); assay: Inhibition of MLK1 (unknown origin) assessed as remaining activity at 10 uM by high-throughput assay relative to control
# [12] = target: Tyrosine-protein kinase ABL1 (Homo sapiens) (UniProt P00519); assay: Inhibition of ABL1 (unknown origin) assessed as remaining activity at 10 uM by high-throughput assay relative to control
# Sequence of Tyrosine-protein kinase ABL1 (Homo sapiens) (P00519 whole entry): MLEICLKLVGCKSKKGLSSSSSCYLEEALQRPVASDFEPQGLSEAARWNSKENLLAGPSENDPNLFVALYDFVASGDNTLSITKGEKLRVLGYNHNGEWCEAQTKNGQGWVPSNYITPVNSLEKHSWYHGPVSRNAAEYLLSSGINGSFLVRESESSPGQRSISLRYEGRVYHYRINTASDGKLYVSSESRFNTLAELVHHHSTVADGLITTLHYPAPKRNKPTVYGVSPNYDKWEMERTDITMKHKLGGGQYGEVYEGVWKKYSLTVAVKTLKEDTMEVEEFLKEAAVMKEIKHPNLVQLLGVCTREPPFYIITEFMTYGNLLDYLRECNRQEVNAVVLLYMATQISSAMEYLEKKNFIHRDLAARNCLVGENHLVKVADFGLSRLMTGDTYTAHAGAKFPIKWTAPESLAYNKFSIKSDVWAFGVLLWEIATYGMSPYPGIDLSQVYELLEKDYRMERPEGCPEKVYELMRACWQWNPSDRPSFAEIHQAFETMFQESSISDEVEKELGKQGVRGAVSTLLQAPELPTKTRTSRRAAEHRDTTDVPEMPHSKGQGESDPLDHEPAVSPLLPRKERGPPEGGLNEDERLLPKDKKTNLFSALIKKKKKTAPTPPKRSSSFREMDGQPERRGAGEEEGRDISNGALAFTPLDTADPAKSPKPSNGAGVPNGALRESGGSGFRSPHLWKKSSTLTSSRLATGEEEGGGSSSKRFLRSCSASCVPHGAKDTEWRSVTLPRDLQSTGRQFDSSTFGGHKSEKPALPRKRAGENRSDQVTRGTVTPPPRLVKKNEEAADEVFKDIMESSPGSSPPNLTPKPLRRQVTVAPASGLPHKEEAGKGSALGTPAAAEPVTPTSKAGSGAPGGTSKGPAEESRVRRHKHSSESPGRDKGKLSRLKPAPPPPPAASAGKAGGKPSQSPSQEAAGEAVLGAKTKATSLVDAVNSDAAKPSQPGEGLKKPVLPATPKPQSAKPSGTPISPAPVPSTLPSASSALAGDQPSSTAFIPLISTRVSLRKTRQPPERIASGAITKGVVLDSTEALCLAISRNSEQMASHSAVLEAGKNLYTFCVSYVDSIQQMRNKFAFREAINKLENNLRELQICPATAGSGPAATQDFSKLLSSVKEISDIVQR
# [13] = target: MAP/microtubule affinity-regulating kinase 3 (Homo sapiens) (UniProt P27448); assay: Inhibition of MARK3 (unknown origin) assessed as remaining activity at 10 uM by high-throughput assay relative to control
# [14] = target: MAP kinase-interacting serine/threonine-protein kinase 2 (Homo sapiens) (UniProt Q9HBH9); assay: Inhibition of MKNK2 (unknown origin) assessed as remaining activity at 10 uM by high-throughput assay relative to control
# Sequence of MAP kinase-interacting serine/threonine-protein kinase 2 (Homo sapiens) (Q9HBH9 whole entry, looked up): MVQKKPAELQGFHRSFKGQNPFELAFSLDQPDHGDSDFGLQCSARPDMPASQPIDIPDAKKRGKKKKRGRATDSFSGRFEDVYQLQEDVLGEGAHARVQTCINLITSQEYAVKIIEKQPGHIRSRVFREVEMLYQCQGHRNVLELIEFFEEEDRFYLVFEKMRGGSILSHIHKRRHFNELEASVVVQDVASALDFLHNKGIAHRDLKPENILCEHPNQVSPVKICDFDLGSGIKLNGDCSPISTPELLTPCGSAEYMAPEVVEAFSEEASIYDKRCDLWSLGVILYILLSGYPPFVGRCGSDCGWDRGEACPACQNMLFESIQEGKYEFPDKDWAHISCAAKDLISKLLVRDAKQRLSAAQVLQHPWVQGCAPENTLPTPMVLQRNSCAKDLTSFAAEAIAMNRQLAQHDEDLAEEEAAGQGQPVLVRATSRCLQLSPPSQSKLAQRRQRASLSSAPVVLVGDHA
# [15] = target: Bone morphogenetic protein receptor type-2 (Homo sapiens) (UniProt Q13873); assay: Inhibition of BMPR2 (unknown origin) assessed as remaining activity at 10 uM by high-throughput assay relative to control
# [16] = target: T1, Serine/threonine-protein kinase PLK3 (Homo sapiens, UniProt Q9H4B4); assay: Inhibition of PLK3 (unknown origin) by radiometric analysis in presence of [gamma-33P]-ATP
# [17] = target: Ephrin type-A receptor 2 (Homo sapiens) (UniProt P29317); assay: Inhibition of EPHA2 (unknown origin) assessed as remaining activity at 10 uM by high-throughput assay relative to control
# [18] = target: Serine/threonine-protein kinase PAK 1 (Homo sapiens) (UniProt Q13153); assay: Inhibition of PAK1 (unknown origin) assessed as remaining activity at 10 uM by high-throughput assay relative to control
# [19] = target: Cyclin-dependent kinase 11B (Homo sapiens) (UniProt P21127); assay: Inhibition of CDK11 (unknown origin) assessed as remaining activity at 10 uM by high-throughput assay relative to control
# Sequence of Cyclin-dependent kinase 11B (Homo sapiens) (P21127 whole entry): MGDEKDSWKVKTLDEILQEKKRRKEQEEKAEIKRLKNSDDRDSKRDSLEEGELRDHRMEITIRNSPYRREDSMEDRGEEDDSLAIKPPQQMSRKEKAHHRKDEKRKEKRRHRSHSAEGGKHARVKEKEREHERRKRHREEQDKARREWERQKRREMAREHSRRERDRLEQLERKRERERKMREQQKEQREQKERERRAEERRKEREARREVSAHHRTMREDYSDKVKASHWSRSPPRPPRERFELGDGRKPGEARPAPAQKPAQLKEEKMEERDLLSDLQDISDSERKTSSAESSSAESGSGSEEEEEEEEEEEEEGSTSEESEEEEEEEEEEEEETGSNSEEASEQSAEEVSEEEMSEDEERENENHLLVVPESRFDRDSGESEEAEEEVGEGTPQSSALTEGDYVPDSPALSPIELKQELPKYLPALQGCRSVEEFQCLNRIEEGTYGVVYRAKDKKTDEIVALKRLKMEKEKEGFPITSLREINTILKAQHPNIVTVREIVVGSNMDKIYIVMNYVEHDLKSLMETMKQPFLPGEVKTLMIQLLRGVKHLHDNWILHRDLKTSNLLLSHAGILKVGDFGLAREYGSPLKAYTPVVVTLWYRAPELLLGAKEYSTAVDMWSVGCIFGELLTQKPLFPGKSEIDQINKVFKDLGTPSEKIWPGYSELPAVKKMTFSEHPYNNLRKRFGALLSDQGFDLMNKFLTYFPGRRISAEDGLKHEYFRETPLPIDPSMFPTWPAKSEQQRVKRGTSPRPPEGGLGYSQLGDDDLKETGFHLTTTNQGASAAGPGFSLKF
# [20] = tested on: Serine/threonine-protein kinase B-raf (Homo sapiens), P15056 [V600E]; assay: Inhibition of BRAF V600E mutant (unknown origin) assessed as remaining activity at 10 uM by high-throughput assay relative to control
# [21] = target: Serine/threonine-protein kinase pim-1 (Homo sapiens) (UniProt P11309); assay: Inhibition of PIM1 (unknown origin) assessed as remaining activity at 10 uM by high-throughput assay relative to control
# [22] = target: Dual specificity mitogen-activated protein kinase kinase 2 (Homo sapiens) (UniProt P36507); assay: Inhibition of MEK2 (unknown origin) assessed as remaining activity at 10 uM by high-throughput assay relative to control
# [23] = target: Inhibitor of nuclear factor kappa-B kinase subunit alpha (Homo sapiens) (UniProt O15111); assay: Inhibition of IKK-alpha (unknown origin) assessed as remaining activity at 10 uM by high-throughput assay relative to control
# [24] = target: Tyrosine-protein kinase ZAP-70 (Homo sapiens) (UniProt P43403); assay: Inhibition of ZAP70 (unknown origin) assessed as remaining activity at 10 uM by high-throughput assay relative to control
# [25] = target: Epidermal growth factor receptor (Homo sapiens) (UniProt P00533); assay: Inhibition of EGFR (unknown origin) assessed as remaining activity at 10 uM by high-throughput assay relative to control
# [26] = target: Angiopoietin-1 receptor (Homo sapiens) (UniProt Q02763); assay: Inhibition of TIE2 (unknown origin) assessed as remaining activity at 10 uM by high-throughput assay relative to control
# Sequence of Angiopoietin-1 receptor (Homo sapiens) (Q02763 whole entry): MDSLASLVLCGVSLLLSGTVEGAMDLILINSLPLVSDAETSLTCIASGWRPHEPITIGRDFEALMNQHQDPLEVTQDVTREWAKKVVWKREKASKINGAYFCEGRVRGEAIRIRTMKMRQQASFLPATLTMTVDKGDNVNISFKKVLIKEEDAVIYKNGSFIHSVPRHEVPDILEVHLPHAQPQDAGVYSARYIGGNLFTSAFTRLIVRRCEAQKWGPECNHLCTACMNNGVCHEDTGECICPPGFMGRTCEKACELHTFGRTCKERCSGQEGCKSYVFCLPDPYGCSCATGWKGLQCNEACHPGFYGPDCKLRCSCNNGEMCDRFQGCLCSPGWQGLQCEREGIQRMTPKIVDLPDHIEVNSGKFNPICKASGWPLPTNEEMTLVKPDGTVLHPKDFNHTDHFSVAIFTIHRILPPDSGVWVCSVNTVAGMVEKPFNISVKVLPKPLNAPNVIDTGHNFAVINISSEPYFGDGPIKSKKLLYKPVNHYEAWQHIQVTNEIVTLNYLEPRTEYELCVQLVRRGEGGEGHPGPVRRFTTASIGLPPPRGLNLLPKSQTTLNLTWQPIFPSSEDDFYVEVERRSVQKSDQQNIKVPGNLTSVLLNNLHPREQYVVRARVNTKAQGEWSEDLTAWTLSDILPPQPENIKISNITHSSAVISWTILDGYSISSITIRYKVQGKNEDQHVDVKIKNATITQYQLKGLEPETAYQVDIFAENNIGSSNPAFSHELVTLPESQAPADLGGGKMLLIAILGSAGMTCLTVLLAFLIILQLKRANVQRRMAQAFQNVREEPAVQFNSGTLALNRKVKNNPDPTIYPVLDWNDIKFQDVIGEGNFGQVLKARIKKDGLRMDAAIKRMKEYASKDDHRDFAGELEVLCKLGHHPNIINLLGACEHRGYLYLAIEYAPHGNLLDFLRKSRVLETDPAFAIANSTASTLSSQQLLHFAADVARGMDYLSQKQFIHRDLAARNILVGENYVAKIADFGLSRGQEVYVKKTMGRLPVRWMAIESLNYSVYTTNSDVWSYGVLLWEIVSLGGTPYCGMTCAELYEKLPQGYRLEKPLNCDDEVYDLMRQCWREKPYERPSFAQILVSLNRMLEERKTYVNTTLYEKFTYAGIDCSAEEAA
# [27] = target: Mitogen-activated protein kinase 8 (Homo sapiens) (UniProt P45983); assay: Inhibition of JNK1 (unknown origin) assessed as remaining activity at 10 uM by high-throughput assay relative to control
# [28] = target: Dual specificity mitogen-activated protein kinase kinase 1 (Homo sapiens) (UniProt Q02750); assay: Inhibition of MEK1 (unknown origin) assessed as remaining activity at 10 uM by high-throughput assay relative to control
# [29] = target: Aurora kinase A (Homo sapiens) (UniProt O14965); assay: Inhibition of AURKA (unknown origin) assessed as remaining activity at 10 uM by high-throughput assay relative to control
# Sequence of Aurora kinase A (Homo sapiens) (O14965 whole entry): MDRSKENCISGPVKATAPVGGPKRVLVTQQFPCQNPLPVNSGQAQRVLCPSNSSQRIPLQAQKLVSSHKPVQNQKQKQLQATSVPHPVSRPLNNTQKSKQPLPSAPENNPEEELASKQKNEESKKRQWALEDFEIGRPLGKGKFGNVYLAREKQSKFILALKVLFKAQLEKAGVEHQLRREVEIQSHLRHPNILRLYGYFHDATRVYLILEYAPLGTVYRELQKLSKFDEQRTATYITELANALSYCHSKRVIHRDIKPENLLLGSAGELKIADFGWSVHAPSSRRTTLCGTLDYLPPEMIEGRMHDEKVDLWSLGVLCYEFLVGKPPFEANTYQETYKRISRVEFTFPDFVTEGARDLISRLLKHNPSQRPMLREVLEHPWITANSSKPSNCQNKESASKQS
# [30] = target: Serine/threonine-protein kinase B-raf (Homo sapiens) (UniProt P15056); assay: Inhibition of BRAF (unknown origin) assessed as remaining activity at 10 uM by high-throughput assay relative to control
# [31] = target: T1, Serine/threonine-protein kinase PLK3; assay: Inhibition of PLK3 (unknown origin) assessed as remaining activity at 10 uM by high-throughput assay relative to control
# [32] = target: Serine/threonine-protein kinase pim-2 (Homo sapiens) (UniProt Q9P1W9); assay: Inhibition of PIM2 (unknown origin) assessed as remaining activity at 10 uM by high-throughput assay relative to control
compound,measurement,setting,value
O=C1c2ccccc2-c2c1oc1ccccc1c2=O,Activity,[1],90%
same,Activity,[2],71%
same,Activity,[3],99%
same,Activity,[4],90%
same,Activity,[5],51%
same,Activity,[6],100%
same,Activity,[7],30%
same,Activity,[8],99%
same,Activity,[9],96%
same,Activity,[10],52%
same,Activity,[11],74%
same,Activity,[12],95%
same,Activity,[13],90%
same,Activity,[14],59%
same,Activity,[15],53%
same,IC50,[16],8.97 µM
same,Activity,[17],80%
same,Activity,[18],93%
same,Activity,[19],66%
same,Activity,[20],72%
same,Activity,[21],93%
same,Activity,[22],71%
same,Activity,[23],65%
same,Activity,[24],77%
same,Activity,[25],93%
same,Activity,[26],74%
same,Activity,[27],34%
same,Activity,[28],85%
same,Activity,[29],82%
same,Activity,[30],66%
same,Activity,[31],8.3%
same,Activity,[32],82%
